Series [1] relates to H9c2. The experiment in a line: Cytotoxicity against rat H9c2 cells at 80 uM incubated for 48 hrs by CCK-8 assay. The series is classed as toxicity, cell-based. The note with it: h9c2, 48 h.
Series [2] relates to H9c2. Briefly: Cardioprotective activity against H2O2 induced rat H9c2 cells preincubated with compound for 1 hr followed by H2O2 addition for 0.5 hr by confocal microscopic analysis. It is filed as functional, cell-based. The note with it: time 90.0 min.
Series [3] can be described thus: Drug uptake in male C57BL mouse model assessed as increase in fluorescence signal in apex cordis at 25 mg/kg. It is filed as ADME, organism-based, Apex of heart. As to conditions: in vivo.
Series [4] in a line: Drug uptake in human A549 cells assessed as increase in fluorescence ratio at 5 uM pretreated with NaHSO3 for 1 hr followed by SO2 for 1 hr by confocal microscopic analysis. The series is classed as ADME, cell-based. The note with it: a549, 2 h.
The species named for series [5] is Mus musculus. Briefly: Cardioprotective activity against myocardial infarction male C57BL mouse assessed as decrease in tissue structure by HE staining based analysis. It is filed as functional, organism-based.
Series [6] has as its system H9c2. Briefly: Cardioprotective activity against H2O2 induced rat H9c2 cells assessed as decrease in red fluorescence at 5 to 50 uM preincubated with compound for 1 hr followed by H2O2 addition for 0.5 hr by confocal microscopic analysis. The series is classed as functional, cell-based. The note with it: dose 5-50 µM, time 90.0 min.
Series [7] can be described thus: Drug localization in mitochondria of human A549 cells assessed as colocalization incubated for 20 mins by MitoTracker Green staining based analysis. It is filed as ADME. The note with it: a549, 20 min.
For series [8], the species on record is Mus musculus. The experiment in a line: Cardioprotective activity against myocardial infarction male C57BL mouse assessed as increase in BCL-2 expression in ischemic region by Western blot analysis. It is filed as functional, organism-based.
The next series deals with A549. Briefly: Cytotoxicity against human A549 cells assessed as reduction in cell viability at 100 uM incubated for 48 hrs by CCK-8 assay. It is filed as functional, cell-based.
For series [9], the species on record is Mus musculus. The experiment in a line: Cardioprotective activity against myocardial infarction male C57BL mouse assessed as decrease in cardiac fibrosis by Masson staining based analysis. The series is classed as functional, organism-based.
A further series concerns L02. Briefly: Cytotoxicity against human LO2 cells assessed as reduction in cell viability at 100 uM incubated for 48 hrs by CCK-8 assay. The series is classed as toxicity, cell-based. As to conditions: l02, 48 h.
Series [10] can be described thus: Drug uptake in human A549 cells assessed as increase in green channel at 5 to 100 uM pretreated with NaHSO3 for 1 hr followed by SO2 for 1 hr by confocal microscopic analysis. The series is classed as ADME, cell-based. As to conditions: a549, 2 h, dose 5-100 µM.
Series [11] concerns H9c2. Briefly: Cardioprotective activity against H2O2 induced rat H9C2 cells assessed as increase in green fluorescence at 5 to 50 uM preincubated with compound for 1 hr followed by H2O2 addition for 0.5 hr by confocal microscopic analysis. The note with it: dose 5-50 µM, time 90.0 min. The series is classed as functional, cell-based.
A short description of series [12]: Drug uptake in human A549 cells assessed as decrease in red channel at 5 to 100 uM pretreated with NaHSO3 for 1 hr followed by SO2 for 1 hr by confocal microscopic analysis. It is filed as ADME, cell-based. The note with it: a549, 2 h, dose 5-100 µM.
The species named for series [13] is Mus musculus. The experiment in a line: Cardioprotective activity against myocardial infarction male C57BL mouse assessed as […] in apoptosis by TUNEL staining based analysis. The series is classed as functional, organism-based.
For series [14], the species on record is Mus musculus. Briefly: Cardioprotective activity against myocardial infarction male C57BL mouse assessed as increase in BCL-2 expression in peri-ischemic region by Western blot analysis. The series is classed as functional, organism-based.
A short description of series [15]: Drug uptake in human A549 cells assessed as increase in fluorescence ratio at 5 uM treated with SO2 for 1 hr by confocal microscopic analysis. It is filed as ADME, cell-based. As to conditions: a549, 1 h.
A short description of series [16]: Drug uptake in human A549 cells assessed as increase in green channel at 5 uM treated with SO2 for 1 hr by confocal microscopic analysis. As to conditions: a549, 1 h. It is filed as ADME, cell-based.
Series [17] can be described thus: Photostability of compound in human A549 cells at 5 uM measured within 3 min in the presence of light-irradition. The series is classed as ADME, cell-based. The note with it: a549, 0.05 h.
In series [18] the test system is H9c2. Briefly: Cardioprotective activity against H2O2 induced rat H9c2 cells assessed as production of BCL-2 protein at 0 to 50 uM preincubated with compound for 1 hr followed by H2O2 addition for 0.5 hr by Western blot analysis. It is filed as functional, cell-based. As to conditions: dose 0-50 µM, time 90.0 min.
Series [19] is described as follows: Drug uptake in human A549 cells assessed as decrease in red channel at 5 uM treated with SO2 incubated for 1 hr by confocal microscopic analysis. It is filed as ADME, cell-based. The note with it: a549, 1 h.
Series [20] in a line: Drug localization in golgi body of human A549 cells assessed as colocalization incubated for 20 mins by Golgi-Tracker Green staining based analysis. The note with it: a549, 20 min. It is filed as ADME, subcellular.
A short description of series [21]: Drug localization in nucleus of human A549 cells assessed as colocalization incubated for 20 mins by […] staining based analysis. The series is classed as ADME, subcellular. As to conditions: a549, 20 min.
The nature of series [22]: Drug localization in lysosomes of human A549 cells assessed as colocalization incubated for 20 mins by lysoTracker Green DND-26 staining based analysis. It is filed as ADME, subcellular, Lysosome. The note with it: a549, 20 min.
The nature of series [23]: Drug localization in endoplasmic reticulum of human A549 cells assessed as colocalization incubated for 20 mins by ER-Tracker Green staining based anlaysis. The series is classed as ADME, subcellular. The note with it: a549, 20 min.

Activity calls are given as the source filed them. No cut-off for these calls is given here.

On to `O=S(=O)([O-])CCCC[n+]1c(CC(c2ccc(N(c3ccccc3)c3ccccc3)cc2)S(=O)(=O)[O-])sc2ccccc21.[Na+]` (stereo unspecified), for which the Activity result in the series on H9c2 [1] is “Non-Toxic”. Further, the outcome in the series on H9c2 [2] was inactive. Also, in series [3], the Drug uptake result was “Active”.
For `O=S(=O)([O-])CCCC[n+]1c(/C=C/c2ccc(N(c3ccccc3)c3ccccc3)cc2)sc2ccccc21`, the Drug uptake result in series [4] is listed as “Active”; in series [7], “Not Active”; in [10] it was “Active”; in [12] it was “Active”; in series [15], “Active”; in series [16], “Active”. The Drug uptake result was “Active” in series [19]; “Not Active” in [20]; “Not Active” in series [21]; “Not Active” in series [22]; “Active” in series [23]. Also, the result in the series listed under Mus musculus [5], with H9c2 [6], in the series filed under Mus musculus [8], in the series with A549, in the series listed under Mus musculus [9] and in the series with H9c2 [11] was Active. Further, the outcome in the series filed under Mus musculus [13], in the series filed under Mus musculus [14] and with H9c2 [18] was Active. In addition, the Activity result with H9c2 [1] and in the series on L02 was “Non-Toxic” each time. The Stability result in [17] is listed as “Stable”.
